Data taken from US6380267B1, “Composition and method for decreasing neurologic symptomatology” (priority 1999, dated 2002).

How the values were obtained:
Type in all cases: in vivo, human
[1] = tested on: patient who had Parkinson's Disease with tremor at rest and gait disturbance; assay: Treatment of a Parkinson's Disease patient with tremor at rest and gait disturbance with sildenafil (Example II); settings: one patient
Method: (§1) A patient who had Parkinson's Disease for fifteen years and who suffered from tremor at rest and gait disturbance was treated with the method for decreasing neurologic symptomatology according to the present invention. […] The patient was initially treated with 25 mg of sildenafil per day.

[2] = tested on: patient who had Parkinson's Disease and severe dyskinesia; assay: Treatment of a Parkinson's Disease patient with severe dyskinesia with sildenafil (Example I); settings: one patient
Method: as §1, with “twelve” for “fifteen”, “severe dyskinesia affecting all their extremities” for “tremor at rest”, “their head and neck for five years” for “gait disturbance”, “50” for “25”

[3] = tested on: patients with Parkinson's Disease and dyskinesias; assay: Treatment of seven patients with Parkinson's Disease and dyskinesias with sildenafil (Example III)
Method: Seven additional patients with Parkinson's Disease and dyskinesias were treated with sildenafil at a dose of 25 mg per day in addition to their usual Parkinson's Disease medications. The patents were all Caucasian and ranged in age from between 55 to 70 years. Four of the patients were men and three were women.

[4] = 25 mg sildenafil per day, after five months of treatment, on levodopa

patients reporting facial flushing ([3]; 25 mg per day): one | patients with any worsening of their Parkinson's Disease symptoms ([3]; 25 mg per day): None
Structure (SMILES): CCCc1nn(C)c2c(=O)[nH]c(-c3cc(S(=O)(=O)N4CCN(C)CC4)ccc3OCC)nc12 [sildenafil]
gait disturbance [1, 4]: improved significantly | tremor [1, 4]: ceased | signs and symptoms of Parkinson's Disease ([1]; after more than seven months of treatment, sildenafil 25 mg three times per day, levodopa 250 mg per day): significantly improved | dyskinesias during treatment ([2]; 50 mg sildenafil per day initially, on levodopa): significantly reduced | signs and symptoms of Parkinson's Disease ([2]; after more than one year of treatment, sildenafil decreased to 25 mg, levodopa 300-400 mg per day): significantly improved | patients with any significant side effects of sildenafil treatment ([3]; 25 mg per day): None | patients with significant improvement in their dyskinesias ([3]; 25 mg per day in addition to usual Parkinson's Disease medications): Five of the seven
